Data reported in patent US9340548B2, “Substituted pyrazolo[3,4-a]carbazoles as hepatitis C inhibitors” (priority 2011, dated 2016).

system: HCVpp (HCV E1/E2, isolate Con1) entry into Hep3B2.1-7 cells; assay: microbe, parasite or virus in culture; assay type: cell-based; conditions: Hepatitis C virus, 72 h, read-out: EC50 (nM) Example 46

SMILES | EC50
CC1(C)Cc2c[nH]nc2-c2[nH]c3ccc(C(=O)N[C@H]4CCOC4)cc3c21 [Compound 1006] | 112 nM
CC1(C)Cc2c[nH]nc2-c2[nH]c3ccc(C(N)=O)cc3c21 [Compound 1011] | 72 nM
CC1(C)Cc2c[nH]nc2-c2[nH]c3ccc(C(=O)NC4CCN(C(=O)c5ccccn5)C4)cc3c21 (centres unmarked) [Compound 1015] | 12 nM
CC(C)NC(=O)N1CCC(NC(=O)c2ccc3[nH]c4c(c3c2)C(C)(C)Cc2c[nH]nc2-4)C1 (centres unmarked) [Compound 1118] | 19 nM
CC1(C)Cc2c[nH]nc2-c2[nH]c3ccc(C(=O)Nc4cccnc4)cc3c21 [Compound 1126] | 65 nM
CC1(C)Cn2cnnc2-c2[nH]c3ccc(C(=O)NCc4ccccn4)cc3c21 [Compound 2001] | 1400 nM
Cn1cc2c(n1)-c1[nH]c3ccc(C(=O)NCc4ccccn4)cc3c1C(C)(C)C2 [Compound 2004] | 109 nM
CC1(C)Cn2ccnc2-c2[nH]c3ccc(C(=O)NC4CCOCC4)cc3c21 [Compound 2012] | 230 nM
CC1(C)Cc2sc(N)nc2-c2[nH]c3ccc(C(=O)NC4CCS(=O)(=O)C4)cc3c21 (centres unmarked) [Compound 2014] | 280 nM
Cc1nc2c(s1)CC(C)(C)c1c-2[nH]c2ccc(C(=O)NC3CCS(=O)(=O)C3)cc12 (centres unmarked) [Compound 2018] | 320 nM
COC(=O)c1ccc2[nH]c3c(c2c1)C(C)(C)Cc1c[nH]nc1-3 [Compound 2020] | 97 nM
CC1(C)Cc2cnc(N)nc2-c2[nH]c3ccc(C(=O)NCc4ccccn4)cc3c21 [Compound 2022] | 1350 nM
Cc1ncc2c(n1)-c1[nH]c3ccc(C(=O)NC4CCS(=O)(=O)C4)cc3c1C(C)(C)C2 (centres unmarked) [Compound 2028] | 885 nM
CC(C)S(=O)(=O)CCNC(=O)c1ccc2[nH]c3c(c2c1)C1(CCC1)Cc1c[nH]nc1-3 [Compound 3011] | 2.8 nM
O=C(NC1CCN(C(=O)c2ccccn2)C1)c1ccc2[nH]c3c(c2c1)C1(CCC1)Cc1c[nH]nc1-3 (centres unmarked) [Compound 3018] | 6.7 nM
CC1CC2(Cc3c[nH]nc3-c3[nH]c4ccc(C(=O)NCc5ccccn5)cc4c32)C1 (centres unmarked) [Compound 4004] | 54 nM
CC1(C)c2c[nH]nc2-c2[nH]c3ccc(C(=O)NC4CCN(C(=O)c5ncn[nH]5)C4)cc3c21 (centres unmarked) [Compound 5002] | 59 nM
